Data reported in patent US20250346597A1, “CONDENSED HETEROCYCLIC COMPOUNDS AS INHIBITOR OF DIACYLGLYCEROL KINASES” (BEONE MEDICINES I GMBH, priority 2023, published 2025).

Tests used:
[1] = target: DGKζ (Homo sapiens (Human), UniProt Q13574); assay: Biochemical DGK IC50 assay (ADP-Glo, lipid micelle substrate), DGKζ; settings: full length DGKζ 0.5 nM, ATP 140 μM, DAG 80 μM
Summary of the method: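 ADP-Glo luminescence measured ADP made in a 1 h room-temperature reaction. The enzyme was Sf9-expressed, purified full-length human DGKζ, and the substrate was DAG/PS micelles. Assay buffer held 50 mM HEPES, 10 mM MgCl2, 0.01 mM CaCl2, 0.1 mM Na3VO4 and 0.01% BSA. IC50 was derived from activity inhibition over a compound concentration series.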

[2] = target: DGKα (Homo sapiens (Human), UniProt P23743); assay: Biochemical DGK IC50 assay (ADP-Glo, lipid micelle substrate), DGKα; settings: full length DGKα […], ATP 140 μM, DAG 80 μM; note: full length DGKα 7.5 nM
Sequence of DGKα (P23743 whole entry): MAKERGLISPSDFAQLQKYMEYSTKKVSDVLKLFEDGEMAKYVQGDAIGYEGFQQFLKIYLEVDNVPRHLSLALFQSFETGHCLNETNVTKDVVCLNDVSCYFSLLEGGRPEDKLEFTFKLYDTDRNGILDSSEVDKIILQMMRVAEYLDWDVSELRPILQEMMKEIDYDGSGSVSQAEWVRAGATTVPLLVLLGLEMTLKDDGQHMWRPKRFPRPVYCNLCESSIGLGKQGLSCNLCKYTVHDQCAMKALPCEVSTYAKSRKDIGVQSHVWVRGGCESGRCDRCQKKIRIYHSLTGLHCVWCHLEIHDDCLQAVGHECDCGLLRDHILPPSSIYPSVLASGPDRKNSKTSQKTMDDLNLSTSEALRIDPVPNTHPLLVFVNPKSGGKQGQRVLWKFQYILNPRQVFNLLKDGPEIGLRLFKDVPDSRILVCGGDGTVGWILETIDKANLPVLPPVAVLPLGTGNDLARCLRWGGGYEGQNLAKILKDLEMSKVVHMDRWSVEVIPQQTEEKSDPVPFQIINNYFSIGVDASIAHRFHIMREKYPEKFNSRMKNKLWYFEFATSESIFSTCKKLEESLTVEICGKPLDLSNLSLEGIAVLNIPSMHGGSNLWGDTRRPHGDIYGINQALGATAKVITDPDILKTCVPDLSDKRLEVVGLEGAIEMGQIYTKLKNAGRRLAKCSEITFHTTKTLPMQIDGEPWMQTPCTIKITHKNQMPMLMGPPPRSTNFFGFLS
Summary of the method: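 Luminescent ADP-Glo detection followed a 1 h room-temperature reaction of full-length DGKα on DAG/PS micelles, in HEPES buffer with 10 mM MgCl2, 0.01 mM CaCl2, 0.1 mM Na3VO4, BSA and Tween-20. IC50 derived from inhibition across increasing compound concentrations.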

Sequence of DGKζ (Q13574 other isoform, or with tags, fused parts or gaps): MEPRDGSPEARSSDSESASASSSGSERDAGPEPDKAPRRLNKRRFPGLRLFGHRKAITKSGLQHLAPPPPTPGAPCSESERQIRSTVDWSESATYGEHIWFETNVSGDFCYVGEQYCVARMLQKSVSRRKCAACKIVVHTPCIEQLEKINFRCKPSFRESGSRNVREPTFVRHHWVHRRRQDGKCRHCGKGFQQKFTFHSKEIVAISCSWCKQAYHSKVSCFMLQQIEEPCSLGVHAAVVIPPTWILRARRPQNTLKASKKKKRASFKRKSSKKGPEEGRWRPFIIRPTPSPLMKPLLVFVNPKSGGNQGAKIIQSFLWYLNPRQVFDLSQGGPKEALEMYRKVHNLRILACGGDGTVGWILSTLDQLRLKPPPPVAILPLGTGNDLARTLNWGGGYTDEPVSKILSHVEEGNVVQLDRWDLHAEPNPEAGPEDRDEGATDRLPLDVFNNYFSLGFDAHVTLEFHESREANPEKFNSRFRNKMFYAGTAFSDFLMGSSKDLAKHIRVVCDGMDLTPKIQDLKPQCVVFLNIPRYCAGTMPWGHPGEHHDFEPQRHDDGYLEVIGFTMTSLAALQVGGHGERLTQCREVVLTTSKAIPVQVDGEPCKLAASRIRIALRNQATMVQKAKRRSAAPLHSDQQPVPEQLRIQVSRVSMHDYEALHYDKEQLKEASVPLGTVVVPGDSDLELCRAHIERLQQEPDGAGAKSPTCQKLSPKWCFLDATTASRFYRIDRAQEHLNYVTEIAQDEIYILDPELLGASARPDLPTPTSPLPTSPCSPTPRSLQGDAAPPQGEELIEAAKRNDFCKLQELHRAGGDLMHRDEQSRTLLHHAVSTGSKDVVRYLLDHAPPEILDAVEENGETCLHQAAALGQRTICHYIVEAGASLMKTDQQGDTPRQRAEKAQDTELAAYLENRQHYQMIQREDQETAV

Compound | IC50 [1] [nM] | IC50 [2] [nM]
CC[C@H]1CN(C(C)c2ccc(COC3CCOCC3)cc2)[C@H](CC)CN1c1cc(=O)n(C)c2cn(CC#N)nc12 (stereo partly drawn) [Compound A15, 2-(7-((2S,5R)-2,5-diethyl-4-(1-(4-(((tetrahydro-2H-pyran-4-yl)oxy)methyl)phenyl)ethyl)piperazin-1-yl)-4-methyl-5-oxo-4,5-dihydro-2H-pyrazolo[4,3-b]pyridin-2-yl)acetonitrile] | 219 | 193
CC[C@@H]1CN(c2cc(=O)n(C)c3cn(CC#N)nc23)[C@@H](C)CN1C(C)c1ccc2ccsc2n1 (some centres unmarked) [Compound A130] | 46 | 215
CC[C@H]1CN(C(C)c2cc3sc(C)nc3cc2F)[C@H](CC)CN1c1nc(=O)n(C)c2cn(CC#N)nc12 (single isomer, unassigned) [Compound A128a] | 60 | 375
CC(c1ccc2c(c1F)OC(C)(C)O2)N1C[C@H](C)N(c2cc(=O)n(C)c3cn(CC#N)nc23)C[C@H]1C (stereo partly drawn) [Compound A69, 2-(7-((2S,5R)-4-(1-(4-fluoro-2,2-dimethylbenzo[d][1,3]dioxol-5-yl)ethyl)-2,5-dimethylpiperazin-1-yl)-4-methyl-5-oxo-4,5-dihydro-2H-pyrazolo[4,3-b]pyridin-2-yl)acetonitrile] | 20 | 4730
CC[C@H]1CN(C(C)c2ccc(OC3COC3)c(C)c2)[C@H](CC)CN1c1cc(=O)n(C)c2cn(CC#N)nc12 (single isomer, unassigned) [Compound A21a] | 1470 | 2890
CC[C@H]1CN(C(C)c2nc(C)c(C)s2)[C@H](CC)CN1c1cc(=O)n(C)c2cn(CC#N)nc12 (single isomer, unassigned) [Compound A35b] | 2420 | > 150000
CC[C@H]1CN(C(C)c2ccc3c(c2F)OC(C)(C)O3)[C@H](CC)CN1c1cc(=O)n(C)c2cn(CC#N)nc12 (stereo partly drawn) [Compound A71, 2-(7-((2S,5R)-2,5-diethyl-4-(1-(4-fluoro-2,2-dimethylbenzo[d][1,3]dioxol-5-yl)ethyl)piperazin-1-yl)-4-methyl-5-oxo-4,5-dihydro-2H-pyrazolo[4,3-b]pyridin-2-yl)acetonitrile] | 4 | 1830
CC[C@H]1CN(C(C)c2cc3scnc3cc2F)[C@H](CC)CN1c1cc(=O)n(C)c2cn(CC#N)nc12 (single isomer, unassigned) [Compound A103b] | 629 | 1350
CC[C@H]1CN(C(C)c2ccc(C3CC3)nc2)[C@H](CC)CN1c1c(F)c(=O)n(C)c2cn(CC#N)nc12 (single isomer, unassigned) [Compound A48a] | 59 | 240
CC[C@H]1CN(C(C)c2ccc3c(F)cnn3c2)[C@H](CC)CN1c1cc(=O)n(C)c2cn(CC#N)nc12 (stereo partly drawn) [Compound A76, 2-(7-((2S,5R)-2,5-diethyl-4-(1-(3-fluoropyrazolo[1,5-a]pyridin-6-yl)ethyl)piperazin-1-yl)-4-methyl-5-oxo-4,5-dihydro-2H-pyrazolo[4,3-b]pyridin-2-yl)acetonitrile] | 179 | 1600
CC[C@H]1CN(C(C)c2ccc3c(c2)CCO3)[C@H](CC)CN1c1cc(=O)n(C)c2cn(CC#N)nc12 (stereo partly drawn) [Compound A67, 2-(7-((2S,5R)-4-(1-(2,3-dihydrobenzofuran-5-yl)ethyl)-2,5-diethylpiperazin-1-yl)-4-methyl-5-oxo-4,5-dihydro-2H-pyrazolo[4,3-b]pyridin-2-yl)acetonitrile] | 71 | 245
CC[C@H]1CN(C(C)c2ccc(C3CC3)cn2)[C@H](CC)CN1c1cc(=O)n(C)c2cn(CC#N)nc12 (stereo partly drawn) [Compound A52, 2-(7-((2S,5R)-4-(1-(5-cyclopropylpyridin-2-yl)ethyl)-2,5-diethylpiperazin-1-yl)-4-methyl-5-oxo-4,5-dihydro-2H-pyrazolo[4,3-b]pyridin-2-yl)acetonitrile] | 99 | 118

Continued, values first:

IC50 [1] [nM] | IC50 [2] [nM] | Compound
3090 | 1910 | CC[C@H]1CN(C(C)c2ccn3nc(C)cc3n2)[C@H](CC)CN1c1cc(=O)n(C)c2cn(CC#N)nc12 (single isomer, unassigned) [Compound A152a]
116 | 107 | CCC(c1ccn2nc(C)cc2n1)N1C[C@H](C)N(c2cc(=O)n(C)c3cn(CC#N)nc23)C[C@H]1CC (single isomer, unassigned) [Compound A171a]
6050 | 2530 | CC[C@H]1CN(C(C)c2ccc(C(=O)N3CCC(OC)CC3)cc2)[C@H](CC)CN1c1cc(=O)n(C)c2cn(CC#N)nc12 (single isomer, unassigned) [Compound A194b]
22 | 108 | [2H]C([2H])([2H])n1c(=O)cc(N2C[C@@H](CC)N(C(C)c3ccc4nc(C)sc4n3)C[C@@H]2CC)c2nn(CC#N)cc21 (single isomer, unassigned) [Compound A134b]
285 | < 23.3 | CC[C@H]1CN(C(C)c2ccc(C#N)cc2)[C@H](CC)CN1c1cc(=O)n(C)c2cn(CC#N)nc12 (stereo partly drawn) [Compound A191, 4-(1-((2R,5S)-4-(2-(cyanomethyl)-4-methyl-5-oxo-4,5-dihydro-2H-pyrazolo[4,3-b]pyridin-7-y)-2,5-diethylpiperazin-1-yl)ethyl)benzonitrile]
> 10000 | 1220 | CC[C@H]1CN(C(C)c2ccc3cnncc3c2)[C@H](CC)CN1c1cc(=O)n(C)c2cn(CC#N)nc12 (single isomer, unassigned) [Compound A186b]
3210 | 352 | CC[C@H]1CN(C(C)c2ccc(C(=O)N3CCC(OC)C3)cc2)[C@H](CC)CN1c1cc(=O)n(C)c2cn(CC#N)nc12 (stereo partly drawn) [Compound A202, 2-(7-((2S,5R)-2,5-diethyl-4-(1-(4-(3-methoxypyrrolidine-1-carbonyl)phenyl)ethyl)piperazin-1-yl)-4-methyl-5-oxo-4,5-dihydro-2H-pyrazolo[4,3-b]pyridin-2-yl)acetonitrile]
2190 | 1080 | CC[C@H]1CN(C(C)c2ccc(CN3CCC(OC)CC3)cc2)[C@H](CC)CN1c1cc(=O)n(C)c2cn(CC#N)nc12 (single isomer, unassigned) [Compound A189a]
96 | 86 | CCC(c1ccc(C(F)(F)F)cc1)N1C[C@H](CC)N(c2cc(=O)n(C)c3cn(CC#N)nc23)C[C@H]1CC (single isomer, unassigned) [Compound A135a]
1510 | 1570 | CC[C@H]1CN(C(C)c2ccc3nc(OCCF)sc3n2)[C@H](CC)CN1c1cc(=O)n(C)c2cn(CC#N)nc12 (single isomer, unassigned) [Compound A147b]
